{"source": "patent US20030170296A1", "about": "“Transdermal drug delivery system” (priority 2000, published 2003)", "key": {"[1]": {"test": "Pharmacokinetic study of transdermal APAP in rats", "type": "in vivo, rats (Sprague-Dawley)", "settings": "100 mg APAP enhancer-containing transdermal system vs regular 100 mg patch, n=6 per group (FIG. 3)", "protocol": "Methodology: Anesthetized (15 mg/kg pentobarbital sodium i.p.) rats (Sprague-Dawley, 500-600 g), were placed on their back, the abdominal hair was trimmed off, and the skin was washed gently with distilled water. Anesthesia was maintained with 0.1 ml pentobarbital (15 mg/ml) along the experiment. […] Blood samples were taken from the tail vein into heparanized tubes at t=0, 1, 2, 3, 4, 5, 7 and 9 hours from the time of application.\nAfter centrifugation, plasma were analyzed for APAP by EMIT kit (Serum Tox EIA Assay, Diagnostic Reagents, Inc.)."}, "[2]": {"settings": "cited from earlier work"}, "[3]": {"settings": "male, CD1 hairless, mouse, 24 h, pH 7.4"}, "[4]": {"settings": "single application of hydrogel disc system to skin; neonates with apnea; cited from earlier work"}}, "data": [{"compound": "CC(=O)Nc1ccc(O)cc1", "note": "[APAP, Acetaminophen]", "values": [{"measurement": "systemic penetration (plasma APAP)", "setting": "[1]", "value": "significant increase in penetration"}, {"measurement": "Volume of distribution", "setting": "[2]; in vivo", "value": 0.95, "unit": "L/kg"}, {"measurement": "binding to plasma proteins", "setting": "[2]; in vivo", "value": 20, "unit": "%"}, {"measurement": "effective plasma concentrations", "setting": "[2]; in vivo", "value": "10 to 20", "unit": "µg/mL"}, {"measurement": "plasma elimination half life", "setting": "[2]; similar in children and adults", "value": "about 2 hours"}, {"measurement": "drug recovered in the urine", "setting": "[2]; therapeutic doses", "value": "90-100%"}, {"measurement": "recovered in urine conjugated with cysteine", "setting": "[2]; therapeutic doses", "value": "about 2%"}, {"measurement": "recovered in urine conjugated with glucuronic acid", "setting": "[2]; therapeutic doses", "value": "about 60%"}, {"measurement": "recovered in urine conjugated with sulfuric acid", "setting": "[2]; therapeutic doses", "value": "about 35%"}, {"measurement": "unchanged APAP in urine", "setting": "[2]; therapeutic doses", "value": "about 2%"}]}, {"compound": "O=C(O)Cc1ccccc1Nc1c(Cl)cccc1Cl", "note": "[diclofenac]", "values": [{"measurement": "higher dose of diclofenac delivered vs regular application of Voltaren Emulgel", "setting": "[3]", "value": 12, "unit": "fold"}]}, {"compound": "Cn1c(=O)c2[nH]cnc2n(C)c1=O", "note": "[theophylline]", "values": [{"measurement": "duration of therapeutic concentrations", "setting": "[4]", "value": "up to 3 days"}]}]}
